For 8 molecules, logD, pKa and logP results are on record in ChEMBL document CHEMBL1129378, “Octanol-, chloroform-, and propylene glycol dipelargonat-water partitioning of morphine-6-glucuronide and other related opiates” (J Med Chem, 1996).

The nature of series [1]: physchem. As to conditions: octanol/water.
Description: Partition coefficient of anion (logD)
For series [2] the following is noted: octanol/water.
Description: Partition coefficient of cation (logD)
Series [3] in a line: physchem. As to conditions: octanol/water. The source holds these as a separate data set.
Description: (§1) Partition coefficient of Zwitterion (logD)
Series [4] in a line: physchem. To be noted: buffer, pH 7.4.
Description: Log D of compound; LogD at pH 7.4
Series [5] can be described thus: physchem.
The nature of series [6]: physchem. The source holds these as a separate data set.
For series [7] the following is noted: octanol/water. This is another data set of the same source.
Description: as §1
The nature of series [8]: Phenolic pKa of compound with […] NaCl. The class given is physicochemical.
Series [9] is described as follows: physchem. The source holds these as a separate data set.
Description: Sugar COOH pKa of compound
Series [10] in a line: Partition coefficient (logP) (chloroform). The format is physicochemical.
The nature of series [11]: Log D of compound (Chloroform water medium). The class given is physicochemical. To be noted: buffer.
Series [12] in a line: Partition coefficient (logD) of Zwitterion (chloroform/water). The class given is physicochemical.
A short description of series [13]: Partition coefficient (logD) of anion (chloroform/water). The format is physicochemical.

Turning to `COc1ccc2c3c1O[C@H]1[C@@H](O)C=C[C@H]4[C@@H](C2)NCC[C@@]341` [NORCODEINE], the logD in series [1] was < -2; in series [2], < -2; in series [3] it was 0.69; in series [4], -1.26. Also, the pKa in series [5] stood at 9.23.
`CC(=O)O[C@H]1C=C[C@H]2[C@H]3Cc4ccc(O)c5c4[C@@]2(CCN3C)[C@H]1O5`: the pKa in [6] is 9.55; in [5] it was 8.19. Besides, the logD in series [1] was -0.42; in series [2], < -2; in [3], 1.55; in [4], 0.61.
On to `CC(=O)Oc1ccc2c3c1O[C@H]1[C@@H](OC(C)=O)C=C[C@H]4[C@@H](C2)N(C)CC[C@@]341` [DIACETYLMORPHINE], for which the logD was -0.94 in series [2], 1.58 in [3] and 0.85 in series [4].
In [6], `CN1CC[C@]23c4c5ccc(O)c4O[C@H]2[C@@H](O[C@@H]2O[C@H](C(=O)O)[C@@H](O)[C@H](O)[C@H]2O)C=C[C@H]3[C@H]1C5` [MORPHINE GLUCURONIDE] yielded a pKa of 9.42.
Regarding `COc1ccc2c3c1O[C@H]1[C@@H](O)C=C[C@H]4[C@@H](C2)N(C)CC[C@@]341` [CODEINE], the log distribution coefficient (logD) was 1.19 in series [7], < -2 in [2] and 0.22 in series [4].
Consider `CO[C@]12CC[C@@]3(C[C@@H]1[C@](C)(O)C(C)(C)C)[C@H]1Cc4ccc(O)c5c4[C@@]3(CCN1CC1CC1)[C@H]2O5` [BUPRENORPHINE], for which the values for the logD in series [1], in series [2] and in [4] were 3.24, 0.45 and 3.93, respectively. For the same molecule, the pKa in series [8] was determined as 9.62; in [5], 8.31.
Turning to `Cc1cc(=O)oc2cc(O[C@@H]3O[C@H](C(=O)O)[C@@H](O)[C@H](O)[C@H]3O)ccc12`, the logD was -1.3 in series [1], -0.39 in series [3] and -1.32 in [4]. This molecule also came in with a pKa in [9] of 2.82.
Take `CN1CC[C@]23c4c5ccc(O[C@@H]6O[C@H](C(=O)O)[C@@H](O)[C@H](O)[C@H]6O)c4O[C@H]2[C@@H](O)C=C[C@H]3[C@H]1C5` [MORPHINE 3-GLUCURONIDE]: the logP in series [10] is -1.12. Also, the logD in series [1] is -1.45; in [11] it was -1.18; in series [2] it was < -2; in series [3] it was -1.1; in series [12], -1.12; in series [4] it was -1.12. For the same molecule, in series [13], the logD was < -2.

As a reminder, the logD is the decadic logarithm of the distribution of all forms, ionised or not, between an organic phase and buffer at a given pH. Low readings indicate lower lipophilicity, high ones higher lipophilicity. In general, pKa refers to the pH at which an ionisable group is half protonated. The logP is a log measure of how a compound divides between an organic and an aqueous phase. A higher logP goes with higher lipophilicity.
